This passage reports IC50 results from patent US20250145598A1, “ACID CERAMIDASE INHIBITORS AND USES THEREOF” (The Regents of the University of California, priority 2021, published 2025).

The target in this assay is T1, Acid ceramidase (Homo sapiens, UniProt Q13510).
T1 sequence (Q13510 22-395): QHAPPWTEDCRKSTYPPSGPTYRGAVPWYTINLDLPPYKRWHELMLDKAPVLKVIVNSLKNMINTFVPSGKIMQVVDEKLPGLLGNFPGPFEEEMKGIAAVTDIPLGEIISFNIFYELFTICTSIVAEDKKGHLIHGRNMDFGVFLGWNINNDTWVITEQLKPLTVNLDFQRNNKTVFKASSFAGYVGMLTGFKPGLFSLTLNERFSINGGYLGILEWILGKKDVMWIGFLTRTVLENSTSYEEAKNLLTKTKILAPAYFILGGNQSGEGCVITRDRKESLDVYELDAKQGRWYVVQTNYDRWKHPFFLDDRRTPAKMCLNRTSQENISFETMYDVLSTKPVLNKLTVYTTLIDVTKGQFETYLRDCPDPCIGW
Description: Acid ceramidase assay (AC in vitro IC50). Format: biochemical. Particulars: Acid ceramidase assay data of example compounds.
For the compound `O=C(NCC1CCN(c2ccccc2)C1)n1cnc(-c2ccc(OCc3cccnn3)cc2)c1` (stereo not shown) [AC2020601-0472, N-((1-phenylpyrrolidin-3-yl)methyl)-4-(4-(pyridazin-3-ylmethoxy)phenyl)-1H-imidazole-1-carboxamide], the IC50 is less than 0.3 µM.
As for `CS(=O)(=O)c1ncc(COc2ccc(-c3cn(C(=O)NCC4CCN(c5ccccc5)C4)cn3)cc2)cn1` (stereo not shown) [AC2020601-0477, 4-(4-((2-(methylsulfonyl)pyrimidin-5-yl)methoxy)phenyl)-N-((1-phenylpyrrolidin-3-yl)methyl)-1H-imidazole-1-carboxamide], the figure is less than 0.3 µM.
As for `CC(C)n1cncc1COc1ccc(-c2cn(C(=O)NCC3CCN(c4ccccc4)C3)cn2)cc1` (stereo not shown) [AC2020601-0478, 4-(4-((1-isopropyl-1H-imidazol-5-yl)methoxy)phenyl)-N-((1-phenylpyrrolidin-3-yl)methyl)-1H-imidazole-1-carboxamide], the figure is less than 0.3 µM; as for `Cn1nc(C(F)(F)F)cc1COc1ccc(-c2cn(C(=O)NCC3CCN(c4ccccc4)C3)cn2)cc1` (stereo not shown) [AC2020601-0481, 4-(4-((1-methyl-3-(trifluoromethyl)-1H-pyrazol-5-yl)methoxy)phenyl)-N-((1-phenylpyrrolidin-3-yl)methyl)-1H-imidazole-1-carboxamide], less than 0.3 µM; as for `CCS(=O)(=O)c1ccc(COc2ccc(-c3cn(C(=O)NCC4CCN(c5ccccc5)C4)cn3)cc2)nn1` (stereo not shown) [AC2020601-0482, 4-(4-((6-(ethylsulfonyl)pyridazin-3-yl)methoxy)phenyl)-N-((1-phenylpyrrolidin-3-yl)methyl)-1H-imidazole-1-carboxamide], less than 0.3 µM.
In turn, `Cn1ncc(COc2ccc(-c3cn(C(=O)NCC4CCN(c5ccccc5)C4)cn3)cc2)n1` (stereo not shown) [AC2020601-0488, 4-(4-((2-methyl-2H-1,2,3-triazol-4-yl)methoxy)phenyl)-N-((1-phenylpyrrolidin-3-yl)methyl)-1H-imidazole-1-carboxamide] had an IC50 of less than 0.3 µM.
As for `Cn1cc(COc2ccc(-c3cn(C(=O)NCC4CCN(c5ccccc5)C4)cn3)cc2)nn1` (stereo not shown) [AC2020601-0489, 4-(4-((1-methyl-1H-1,2,3-triazol-4-yl)methoxy)phenyl)-N-((1-phenylpyrrolidin-3-yl)methyl)-1H-imidazole-1-carboxamide], the figure is less than 0.3 µM; as for `Cc1nnc(COc2ccc(-c3cn(C(=O)NCC4CCN(c5ccccc5)C4)cn3)cc2)o1` (stereo not shown) [AC2020601-0491, 4-(4-((5-methyl-1,3,4-oxadiazol-2-yl)methoxy)phenyl)-N-((1-phenylpyrrolidin-3-yl)methyl)-1H-imidazole-1-carboxamide], less than 0.3 µM; as for `CS(=O)(=O)c1ccc(COc2ccc(-c3cn(C(=O)NCC4CCN(c5cccc(C#N)c5)C4)cn3)cc2)cc1` (stereo not shown) [AC2020601-0494, N-((1-(3-cyanophenyl)pyrrolidin-3-yl)methyl)-4-(4-(4-(methylsulfonyl)benzyloxy)phenyl)-1H-imidazole-1-carboxamide], less than 0.3 µM.
`CS(=O)(=O)c1ccc(COc2ccc(-c3cn(C(=O)NCC4CCN(c5cc(F)ccc5F)C4)cn3)cc2)cc1` (stereo not shown) [AC2020601-0496, N-((1-(2,5-difluorophenyl)pyrrolidin-3-yl)methyl)-4-(4-(4-(methylsulfonyl)benzyloxy)phenyl)-1H-imidazole-1-carboxamide] gave an IC50 of less than 0.3 µM.
For `CS(=O)(=O)c1ccc(COc2ccc(-c3cn(C(=O)NCC4CCN(c5ccc(F)cn5)C4)cn3)cc2)cc1` (stereo not shown) [AC2020601-0497, N-((1-(5-fluoropyridin-2-yl)pyrrolidin-3-yl)methyl)-4-(4-((4-(methylsulfonyl)benzyl)oxy)phenyl)-1H-imidazole-1-carboxamide] the value was less than 0.3 µM; for `CS(=O)(=O)c1ccc(COc2ccc(-c3cn(C(=O)NCC4CCN(c5cccc(C(F)(F)F)c5)C4)cn3)cc2)cc1` (stereo not shown) [AC2020601-0498, 4-(4-((4-(methylsulfonyl)benzyl)oxy)phenyl)-N-((1-(3-(trifluoromethyl)phenyl)pyrrolidin-3-yl)methyl)-1H-imidazole-1-carboxamide], less than 0.3 µM.
As to `Cc1ncc(N2CCC(CNC(=O)n3cnc(-c4ccc(OCc5ccc(S(C)(=O)=O)cc5)cc4)c3)C2)s1` (stereo not shown) [AC2020601-0499, 4-(4-((4-(methylsulfonyl)benzyl)oxy)phenyl)-N-((1-(2-methylthiazol-5-yl)pyrrolidin-3-yl)methyl)-1H-imidazole-1-carboxamide], the half-maximal inhibitory concentration (IC50) was less than 0.3 µM.
For `CS(=O)(=O)c1ccc(C(=O)Oc2ccc(-c3cn(C(=O)NCC4CCN(c5ccccc5)C4)cn3)cc2)cc1` (stereo not shown) [AC2020601-0501, 4-(1-((1-phenylpyrrolidin-3-yl)methylcarbamoyl)-1H-imidazol-4-yl)phenyl 4-(methylsulfonyl)benzoate], the IC50 is less than 0.3 µM.
As for `CS(=O)(=O)c1ccc(COc2ccc(-c3cn(C(=O)NCC4CCN(c5ccc6c(c5)CCO6)C4)cn3)cc2)cc1` (stereo not shown) [AC2020601-0506, N-((1-(2,3-dihydrobenzofuran-5-yl)pyrrolidin-3-yl)methyl)-4-(4-(4-(methylsulfonyl)benzyloxy)phenyl)-1H-imidazole-1-carboxamide], the figure is less than 0.3 µM.
For `N#CCS(=O)(=O)c1ccc(COc2ccc(-c3cn(C(=O)NCC4CCN(c5ccccc5)C4)cn3)cc2)cc1` (stereo not shown) [AC2020601-0507, 4-(4-(4-(cyanomethylsulfonyl)benzyloxy)phenyl)-N-((1-phenylpyrrolidin-3-yl)methyl)-1H-imidazole-1-carboxamide] the value was less than 0.3 µM.
